pIC50: −log10 of the molar value.

This data set addresses hERG ion channel (Homo sapiens, UniProt Q12809). Nature of the data set: hERG ion channel inhibition experiment (manual patch clamp, HEK293). The format is cell-based. The following applies: HEK293 cells stably expressing hERG, n=2. How it is done:
III. hERG Ion Channel Inhibition Experiment
The compounds used in this experiment are specific embodiments of the present invention, with reference to compound AMG473 as an example from Amgen's patent WO 2022/169948A1, identified as example 473.
2. Cell Line and Cell Culture
Stably expressing hERG ion channel HEK293 cell line (Catalog: K1236) was purchased from Invitrogen. This cell line was cultured in a medium containing 85% DMEM, 10% dialyzed fetal bovine serum, 0.1 mM non-essential amino acid solution, 100 U/mL penicillin-streptomycin solution, 25 mM HEPES, 5 µg/mL blasticidin, and 400 µg/mL geneticin. […]
• 1) Place glass slides containing HEK293 cells in the perfusion chamber of the micro-manipulation station. • 2) Under an Olympus IX71 or IX73 inverted microscope, position suitable cells in the central field of view using a ×10 objective. […] The peak of the tail current represents the size of the hERG current. • 9) The hERG current induced by the test compound is continuously recorded for 120 seconds before administration to assess the stability of the tested cells in producing hERG currents. […] Record the last 5 hERG current values after the recorded current stabilizes, and take their average as the final current value at a specific concentration. […]

Chain of hERG ion channel (Q12809 whole entry): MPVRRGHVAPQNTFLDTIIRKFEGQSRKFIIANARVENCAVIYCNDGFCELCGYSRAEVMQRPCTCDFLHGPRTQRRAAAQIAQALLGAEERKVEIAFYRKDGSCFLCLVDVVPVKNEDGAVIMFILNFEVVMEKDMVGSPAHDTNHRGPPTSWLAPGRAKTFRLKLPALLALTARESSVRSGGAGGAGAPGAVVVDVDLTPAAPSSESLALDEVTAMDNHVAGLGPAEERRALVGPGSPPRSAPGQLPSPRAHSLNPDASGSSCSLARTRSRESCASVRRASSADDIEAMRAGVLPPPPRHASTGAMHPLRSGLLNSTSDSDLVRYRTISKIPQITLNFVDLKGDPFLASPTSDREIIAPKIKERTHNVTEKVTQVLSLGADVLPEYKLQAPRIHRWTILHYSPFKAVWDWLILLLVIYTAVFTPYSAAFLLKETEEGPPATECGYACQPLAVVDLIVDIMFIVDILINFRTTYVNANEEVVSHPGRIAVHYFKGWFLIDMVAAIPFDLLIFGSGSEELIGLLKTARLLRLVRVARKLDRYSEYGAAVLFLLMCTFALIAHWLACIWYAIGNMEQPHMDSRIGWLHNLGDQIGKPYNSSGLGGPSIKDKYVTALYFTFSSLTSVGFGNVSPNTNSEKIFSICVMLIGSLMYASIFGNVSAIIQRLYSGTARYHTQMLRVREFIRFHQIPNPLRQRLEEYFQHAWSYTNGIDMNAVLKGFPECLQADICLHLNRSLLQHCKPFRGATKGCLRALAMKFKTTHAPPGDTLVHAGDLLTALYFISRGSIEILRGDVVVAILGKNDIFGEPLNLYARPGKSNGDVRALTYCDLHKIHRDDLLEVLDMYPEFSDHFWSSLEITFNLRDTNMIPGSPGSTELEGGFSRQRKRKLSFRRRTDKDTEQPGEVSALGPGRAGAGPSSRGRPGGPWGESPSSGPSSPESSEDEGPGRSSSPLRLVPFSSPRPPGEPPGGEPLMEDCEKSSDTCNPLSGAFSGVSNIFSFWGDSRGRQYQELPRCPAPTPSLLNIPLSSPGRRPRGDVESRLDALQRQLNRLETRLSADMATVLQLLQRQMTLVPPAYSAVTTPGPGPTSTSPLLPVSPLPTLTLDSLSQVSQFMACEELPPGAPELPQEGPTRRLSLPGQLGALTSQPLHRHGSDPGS

In general, pIC50 refers to the IC50 on a negative log10 scale, so that one unit is a factor of ten. Turning to “(S)-4-amino-7-fluoro-N-methyl-N-(6-(triflu oromethyl)-2,3-dihydr obenzofuran-3-yl)imi dazo[1,5-a]quinoxalin e-8-carboxamide [Example 29]”, the pIC50 was 4.94.

The record behind these values is patent publication EP4775208A1, “USE OF PRMT5 INHIBITOR IN TREATMENT OF TUMORS OR CANCERS” (Apeiron Therapeutics (Hong Kong) Ltd., priority 2023, dated 2025).
